# Results as given in US20240270695A1, “COMPOUNDS, COMPOSITIONS AND METHODS OF TREATING DISORDERS” (Chengdu Anticancer Bioscience LTD, priority 2021, published 2024).
# How the values were obtained:
# [1] = tested on: RPE-Neo or RPE-MYC or RPE-MYC expressing an EGFP-Histone 2B fusion protein; test: MTT assays of cellular proliferation; type: cell-based; conditions: Homo sapiens, min. effective conc., read-out: Proliferative arrest (<50%)
# [2] = tested on: RPE-Neo or RPE-MYC or RPE-MYC expressing an EGFP-Histone 2B fusion protein; test: Phenotypic screening assay (arrest in mitosis, change in DNA content, cell death; GE IN-Cell Analyzer 2000); type: cell-based; conditions: Homo sapiens, compounds 20 nM to 20 μM, 24, 48 or 72 hours
# [3] = read-out: Min. Effective conc. for Polyploidy (≥10%)
# [4] = min. effective conc., read-out: Cell Death (>30%)
# [5] = min. effective conc., read-out: Mitotic Arrest (≥10%)
Compound,minimal effective concentration [1],"minimal effective concentration [2, 3]","minimal effective concentration [2, 4]","minimal effective concentration [2, 5]"
"CNC(=O)C1=C(O)c2cc(F)ccc2N(Cc2ccc(C)c(F)c2)C(=O)C1 [Example 135, 7-fluoro-1-(3-fluoro-4-methylbenzyl)-5-hydroxy-N-methyl-2-oxo-2,3-dihydro-1H-benzo[b]azepine-4-carboxamide]",1 to 10 µM,1 to 10 µM,1 to 10 µM,1 to 10 µM
"CNC(=O)C1=C(O)c2ccccc2N(Cc2ccc(C(C)C)cc2)C(=O)C1 [Example 87, 5-hydroxy-1-(4-isopropylbenzyl)-N-methyl-2-oxo-2,3-dihydro-1H-benzo[b]azepine-4-carboxamide]",30 to 1000 µM,30 to 1000 µM,30 to 1000 µM,30 to 1000 µM
CNC(=O)C1=C(O)c2ccccc2N(Cc2ccc(C)c(Br)c2)C(=O)C1 [Example 120],10 to 30 µM,10 to 30 µM,10 to 30 µM,10 to 30 µM
"CNC(=O)C1=C(O)c2ccccc2N(Cc2ccc(F)cc2)C(=O)C1 [Example 76, 1-(4-fluorobenzyl)-5-hydroxy-N-methyl-2-oxo-2,3-dihydro-1H-benzo[b]azepine-4-carboxamide]",1 to 10 µM,1 to 10 µM,1 to 10 µM,1 to 10 µM
"CNC(=O)C1=C(O)c2ccccc2N(Cc2ccc(C(F)(F)F)cc2)C(=O)C1 [Example 84, 5-hydroxy-N-methyl-2-oxo-1-(4-(trifluoromethyl)benzyl)-2,3-dihydro-1H-benzo[b]azepine-4-carboxamide]",30 to 1000 µM,30 to 1000 µM,30 to 1000 µM,10 to 30 µM
"CNC(=O)C1=C(O)c2ccccc2N(Cc2cc(F)cc(F)c2)C(=O)C1 [Example 104, 1-(3,5-difluorobenzyl)-5-hydroxy-N-methyl-2-oxo-2,3-dihydro-1H-benzo[b]azepine-4-carboxamide]",30 to 1000 µM,30 to 1000 µM,30 to 1000 µM,30 to 1000 µM
"CNC(=O)C1=C(O)c2ccccc2N(Cc2cccnc2)C(=O)C1 [Example 75, 5-hydroxy-N-methyl-2-oxo-1-(pyridin-3-ylmethyl)-2,3-dihydro-1H-benzo[b]azepine-4-carboxamide]",30 to 1000 µM,30 to 1000 µM,30 to 1000 µM,30 to 1000 µM
"CNC(=O)C1=C(O)c2ccc(-c3cnn(C)c3)cc2N(Cc2ccc(C)c(F)c2)C(=O)C1 [Example 138, 1-(3-fluoro-4-methylbenzyl)-5-hydroxy-N-methyl-8-(1-methyl-1H-pyrazol-4-yl)-2-oxo-2,3-dihydro-1H-benzo[b]azepine-4-carboxamide]",1 to 10 µM,1 to 10 µM,1 to 10 µM,1 to 10 µM
"CNC(=O)C1=C(O)c2ccccc2N(CCc2ccc(OC)cc2)C(=O)C1 [Example 96, 5-hydroxy-1-(4-methoxyphenethyl)-N-methyl-2-oxo-2,3-dihydro-1H-benzo[b]azepine-4-carboxamide]",30 to 1000 µM,30 to 1000 µM,30 to 1000 µM,30 to 1000 µM
"CNC(=O)C1=C(O)c2ccccc2N(Cc2ccc(F)c(C(F)(F)F)c2)C(=O)C1 [Example 118, 1-(4-fluoro-3-(trifluoromethyl)benzyl)-5-hydroxy-N-methyl-2-oxo-2,3-dihydro-1H-benzo[b]azepine-4-carboxamide]",30 to 1000 µM,30 to 1000 µM,30 to 1000 µM,30 to 1000 µM
"CNC(=O)C1=C(O)c2ccccc2N(Cc2ccccc2F)C(=O)C1 [Example 78, 1-(2-fluorobenzyl)-5-hydroxy-N-methyl-2-oxo-2,3-dihydro-1H-benzo[b]azepine-4-carboxamide]",10 to 30 µM,10 to 30 µM,10 to 30 µM,10 to 30 µM
"CNC(=O)C1=C(O)c2ccccc2N(Cc2cccc(OC)c2F)C(=O)C1 [Example 113, 1-(2-fluoro-3-methoxybenzyl)-5-hydroxy-N-methyl-2-oxo-2,3-dihydro-1H-benzo[b]azepine-4-carboxamide]",10 to 30 µM,10 to 30 µM,10 to 30 µM,10 to 30 µM
"CNC(=O)C1=C(O)c2ccccc2N(Cc2cccc(F)c2F)C(=O)C1 [Example 107, 1-(2,3-difluorobenzyl)-5-hydroxy-N-methyl-2-oxo-2,3-dihydro-1H-benzo[b]azepine-4-carboxamide]",30 to 1000 µM,30 to 1000 µM,30 to 1000 µM,30 to 1000 µM
"CNC(=O)C1=C(O)c2ccccc2N(Cc2ccc(OC)c(F)c2)C(=O)C1 [Example 111, 1-(3-fluoro-4-methoxybenzyl)-5-hydroxy-N-methyl-2-oxo-2,3-dihydro-1H-benzo[b]azepine-4-carboxamide]",1 to 10 µM,1 to 10 µM,1 to 10 µM,1 to 10 µM
"CNC(=O)C1=C(O)c2cc(C)ccc2N(Cc2ccc(C)c(F)c2)C(=O)C1 [Example 136, 1-(3-fluoro-4-methylbenzyl)-5-hydroxy-N,7-dimethyl-2-oxo-2,3-dihydro-1H-benzo[b]azepine-4-carboxamide]",1 to 10 µM,1 to 10 µM,1 to 10 µM,1 to 10 µM
"CNC(=O)C1=C(O)c2ccccc2N(Cc2ccncc2)C(=O)C1 [Example 74, 5-hydroxy-N-methyl-2-oxo-1-(pyridin-4-ylmethyl)-2,3-dihydro-1H-benzo[b]azepine-4-carboxamide]",30 to 1000 µM,30 to 1000 µM,30 to 1000 µM,30 to 1000 µM
"CNC(=O)C1CC(=O)N(Cc2ccc(C)c(C)c2)c2ccccc2C1=O (stereo not shown) [Example 100, 1-(3,4-dimethylbenzyl)-5-hydroxy-N-methyl-2-oxo-2,3-dihydro-1H-benzo[b]azepine-4-carboxamide]",1 to 10 µM,1 to 10 µM,1 to 10 µM,1 to 10 µM
"CNC(=O)C1=C(O)c2ccccc2N(Cc2cc(F)c(OC)c(F)c2)C(=O)C1 [Example 122, 1-(3,5-difluoro-4-methoxybenzyl)-5-hydroxy-N-methyl-2-oxo-2,3-dihydro-1H-benzo[b]azepine-4-carboxamide]",30 to 1000 µM,30 to 1000 µM,30 to 1000 µM,30 to 1000 µM
"CNC(=O)C1=C(O)c2ccccc2N(CC2CC2)C(=O)C1 [Example 70, 1-(cyclopropylmethyl)-5-hydroxy-N-methyl-2-oxo-2,3-dihydro-1H-benzo[b]azepine-4-carboxamide]",30 to 1000 µM,30 to 1000 µM,30 to 1000 µM,30 to 1000 µM
"COc1ccc2c(c1)N(Cc1ccc(C)c(F)c1)C(=O)CC(C(=O)C1CC1)=C2O [Example 141, 4-(cyclopropanecarbonyl)-1-(3-fluoro-4-methylbenzyl)-5-hydroxy-8-methoxy-1,3-dihydro-2H-benzo[b]azepin-2-one]",0.001 to 1 µM,0.001 to 1 µM,0.001 to 1 µM,0.001 to 1 µM
"CNC(=O)C1=C(O)c2ccccc2N(c2ccc(OC)c(F)c2)C(=O)C1 [Example 95, 1-(3-fluoro-4-methoxyphenyl)-5-hydroxy-N-methyl-2-oxo-2,3-dihydro-1H-benzo[b]azepine-4-carboxamide]",10 to 30 µM,10 to 30 µM,10 to 30 µM,1 to 10 µM
"CNC(=O)C1=C(O)c2ccccc2N(Cc2ccc(F)c(C)c2)C(=O)C1 [Example 109, 1-(4-fluoro-3-methylbenzyl)-5-hydroxy-N-methyl-2-oxo-2,3-dihydro-1H-benzo[b]azepine-4-carboxamide]",30 to 1000 µM,10 to 30 µM,30 to 1000 µM,10 to 30 µM
"CNC(=O)C1=C(O)c2ccccc2N(Cc2cc(F)ccc2C)C(=O)C1 [Example 115, 1-(5-fluoro-2-methylbenzyl)-5-hydroxy-N-methyl-2-oxo-2,3-dihydro-1H-benzo[b]azepine-4-carboxamide]",30 to 1000 µM,30 to 1000 µM,30 to 1000 µM,10 to 30 µM
"CNC(=O)C1=C(O)c2ccccc2N(Cc2cccc(C)c2)C(=O)C1 [Example 80, 5-hydroxy-N-methyl-1-(3-methylbenzyl)-2-oxo-2,3-dihydro-1H-benzo[b]azepine-4-carboxamide]",1 to 10 µM,1 to 10 µM,1 to 10 µM,1 to 10 µM
"COC(=O)C1=C(O)c2ccccc2N(Cc2cccc3ccccc23)C(=O)C1 [Example 38, Methyl 5-hydroxy-1-(naphthalen-1-ylmethyl)-2-oxo-2,3-dihydro-1H-benzo[b]azepine-4-carboxylate]",30 to 1000 µM,30 to 1000 µM,30 to 1000 µM,30 to 1000 µM
